Experimental data published in article PMC7094952 (Nature, 2010).
Values after ≈ are worked out from the molar mass of the structure shown. Values joined by “and” are separate entries in the source; they are usually repeats but may differ in a detail not shown here. Equal values may be shown once. “Also recorded” adds a separate entry of the source. Read-outs that look alike come from different tables or passages of the source.

Experiments:
[1] = test system: BVDV replicon; test: BVDV replicon; type: cell-based, bovine viral diarrhoea virus; conditions: Bovine viral diarrhea virus isolates and strains, Huh-7, in Bos taurus
[2] = test system: Infectious BVDV; test: BVDV cell protection assay; type: cell-based, bovine viral diarrhoea virus; conditions: Bovine viral diarrhea virus isolates and strains, MDBK, in Bos taurus
[3] = Cytotoxicity in Huh-7 cells; type: cell-based; conditions: human, Huh-7 cells (liver)
[4] = test system: panel of 10 RNA and DNA viruses; test: organism not typed; type: cell-based
[5] = test system: HCV genotype 1a replicon (NS5A variants); test: Transient replication assay, genotype 1a wild type and resistant variants; type: cell-based; conditions: Hepatitis C virus, GETYPE1A, most resistant 1a variant, L31V
[6] = test system: HCV replicon; test: HCV replicon inhibitor combination studies; type: cell-based, hepatitis C virus; conditions: overall
[7] = test system: genotype 1a replicon cells; test: HCV replicon combination study with NS3 inhibitor in genotype 1a replicon cells; type: cell-based, hepatitis C virus; conditions: ITMN-191, overall
[8] = test system: genotype 1a replicon; test: Genotype 1a replicon assay with 40% human serum; type: cell-based; conditions: Hepatitis C virus, GETYPE1A, read-out: EC90 (protein-binding-adjusted)
[9] = test system: genotype 1b replicon; test: Genotype 1b replicon assay with 40% human serum; type: cell-based; conditions: Hepatitis C virus, GETYPE1B, read-out: EC90 (protein-binding-adjusted)
[10] = Battery of in vitro receptor binding and enzymatic assays; conditions: assessment of promiscuity
[11] = Preclinical pharmacokinetics; type: in vivo, four preclinical species
[12] = Single ascending-dose study in healthy, non-HCV-infected subjects; type: in vivo, human
[13] = test system: HCV genotype 1; test: Single ascending-dose study in HCV-infected subjects: plasma HCV RNA; type: in vivo, human
[14] = test system: HCV genotype 1a; type: in vivo, human; conditions: genotype 1a subjects, 24 h
[15] = test system: HCV genotype 1b; type: in vivo, human; conditions: for mean reduction in HCV viral load / range of reduction in HCV viral load: genotype 1b subjects, 24 h
[16] = test system: HCV replicons of genotypes 1a, 1b, 2a, 3a, 4a and 5a; test: HCV replicons, all genotypes tested; type: cell-based; conditions: Hepatitis C virus, read-out: EC50 values, all genotypes tested
[17] = test system: HCV replicon genotype 1b, Con1; test: HCV genotype 1b; type: cell-based; conditions: Hepatitis C virus, GETYPE1B, read-out: EC50 (subgenomic viral RNA replication)
[18] = biological target: T1, genotype 1b HCV NS5A (Hepatitis C virus genotype 1b, UniProt Q9WMX2, S2204I); test: NS5A inhibitor binding assay; conditions: 1 μM, genotype 1b replicon cells, about 18 h, streptavidin agarose beads, immunoblot
T1 sequence (Q9WMX2 1973-2419 S2204I limits assumed): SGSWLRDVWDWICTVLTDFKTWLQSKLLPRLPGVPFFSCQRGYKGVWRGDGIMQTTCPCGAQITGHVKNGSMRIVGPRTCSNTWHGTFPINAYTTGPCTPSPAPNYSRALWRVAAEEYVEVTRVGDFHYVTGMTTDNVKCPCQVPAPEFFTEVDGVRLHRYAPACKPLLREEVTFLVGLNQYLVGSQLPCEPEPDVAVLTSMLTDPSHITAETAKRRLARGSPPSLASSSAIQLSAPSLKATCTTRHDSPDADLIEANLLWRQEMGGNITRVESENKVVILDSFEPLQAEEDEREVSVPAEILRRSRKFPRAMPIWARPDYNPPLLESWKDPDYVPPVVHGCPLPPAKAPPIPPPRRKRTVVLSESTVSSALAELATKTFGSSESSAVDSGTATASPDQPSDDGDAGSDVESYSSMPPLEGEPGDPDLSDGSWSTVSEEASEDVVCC

[19] = biological target: HCV NS3 (Hepatitis C virus genotype 1b, UniProt Q9WMX2); test: Biotin/streptavidin pull-down, immunoblot for NS3; type: binding; conditions: genotype 1b replicon cells
[20] = biological target: HCV NS5B (Hepatitis C virus genotype 1b, UniProt Q9WMX2); test: Biotin/streptavidin pull-down, immunoblot for NS5B; type: binding; conditions: genotype 1b replicon cells
[21] = biological target: T2, BVDV NS5A (Bovine viral diarrhea virus, UniProt P19711); test: Biotin/streptavidin pull-down in BVDV replicons; type: binding, bovine viral diarrhoea virus; conditions: replicons expressing BVDV RNA
T2 sequence (P19711 2774-3269 limits assumed): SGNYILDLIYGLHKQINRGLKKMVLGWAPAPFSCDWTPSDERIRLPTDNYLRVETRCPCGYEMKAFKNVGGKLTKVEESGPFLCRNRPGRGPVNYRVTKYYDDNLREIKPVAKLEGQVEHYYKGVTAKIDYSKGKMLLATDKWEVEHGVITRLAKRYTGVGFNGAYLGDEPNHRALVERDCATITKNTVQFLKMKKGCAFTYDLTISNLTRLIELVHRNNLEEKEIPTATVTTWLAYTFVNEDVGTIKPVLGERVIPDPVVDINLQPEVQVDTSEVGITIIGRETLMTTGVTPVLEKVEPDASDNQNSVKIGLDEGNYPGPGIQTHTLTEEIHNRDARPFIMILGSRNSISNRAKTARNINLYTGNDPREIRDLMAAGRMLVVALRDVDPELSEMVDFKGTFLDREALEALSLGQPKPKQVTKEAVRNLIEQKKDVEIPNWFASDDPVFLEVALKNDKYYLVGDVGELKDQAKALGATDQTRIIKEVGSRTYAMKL

[22] = test system: Y93H replicon; test: Y93H replicon assay; type: cell-based; conditions: Hepatitis C virus
[23] = 1 mg single dose, 24 h after administration

For `COC(=O)N[C@H](C(=O)N1CCC[C@H]1c1ncc(-c2ccc(-c3ccc(-c4cnc([C@@H]5CCCN5C(=O)[C@@H](NC(=O)OC)C(C)C)[nH]4)cc3)cc2)[nH]1)C(C)C` [BMS-790052], which EC50 [1] is on record?
Its EC50 is 9 µM.

And the EC50 [2]?
Its EC50 is 12 µM.

What about the CC50 [3] of the same compound?
The CC50 was 17 ± 1 µM.

And the EC50 [4]?
Its EC50 is over 10 µM.

What about the EC50 [5] of the same compound?
The EC50 was about 0.02 µM.

What about the “Combination effect with Interferon-α2β (intron A)” value [6] of the same compound?
Its value is “Synergistic”.

What about the “Combination effect with nucleoside NS5B polymerase inhibitor NM-107” value [6] of the same compound?
The value was “Additive/synergistic”.

And the “Combination effect with non-nucleoside NS5B polymerase inhibitor” value ([6]; palm site II allosteric inhibitor)?
The value was “Additive/synergistic”.

What about the “Combination effect with NS3 protease inhibitor” value [7] of the same compound?
The value was “Additive/synergistic”.

And the EC90 [8]?
Its EC90 is 0.28 ng/mL (≈ 0.379 nM).

And the EC90 [9]?
The EC90 was 0.04 ng/mL (≈ 0.0541 nM).

And the “Effects in battery of in vitro receptor binding and enzymatic assays” value [10]?
The value was “no significant effects”.

And the Oral bioavailability ([11]; four preclinical species)?
The Oral bioavailability was “orally bioavailable”.

What about the Liver distribution ([11]; preclinical species) of the same compound?
The Liver distribution was “distributes effectively to the liver”.

And the “Drug concentrations at and beyond 24 h post-dose” value ([12]; all healthy subjects, versus EC90 for genotypes 1a and 1b)?
The value was “greater than the protein-binding-adjusted EC90”.

And the Exposure versus dose ([12]; healthy subjects, 1 to 200 mg oral solution)?
Its Exposure versus dose is “dose-proportional exposures”.

What about the “Absorption after oral administration” value ([12]; healthy subjects, oral solution) of the same compound?
The value was “readily absorbed”.

And the Safety and tolerability ([12]; healthy subjects, single oral doses up to 200 mg)?
The Safety and tolerability was “safe and well tolerated”.

What about the “mean reduction in HCV viral load” value [13, 23] of the same compound?
Its value is 1.8 log10.

And the “range of reduction in HCV viral load” value [13, 23]?
The value was 0.2–3.0 log10.

What about the “mean maximal HCV RNA decline” value ([13]; 100 mg single dose) of the same compound?
The value was 3.6 log10.

What about the “range of maximal HCV RNA decline” value ([13]; 100 mg single dose) of the same compound?
The value was 3.0–4.1 log10.

And the “mean reduction in HCV viral load” value ([14]; 1 mg)?
Its value is 1.8 log10.

And the “range of reduction in HCV viral load” value ([14]; 1 mg)?
The value was 0.2–3.0 log10.

What about the “mean reduction in HCV viral load” value ([14]; 10 mg) of the same compound?
The value was 2.9 log10.

What about the “range of reduction in HCV viral load” value ([14]; 10 mg) of the same compound?
Its value is 2.9–3.0 log10.

And the “mean reduction in HCV viral load” value ([14]; 100 mg)?
The value was 3.6 log10.

What about the “range of reduction in HCV viral load” value ([14]; 100 mg) of the same compound?
Its value is 3.5–3.6 log10.

And the “HCV RNA measurement at hour 144” value ([15]; 100 mg single dose, two individual subjects with genotype 1b)?
The value was “less than 25 IU ml^-1 and 35 IU ml^-1”.

And the “mean reduction in HCV viral load” value ([15]; 10 mg)?
Its value is 3.6 log10.

And the “range of reduction in HCV viral load” value ([15]; 10 mg)?
Its value is 3.1–4.0 log10.

What about the “mean reduction in HCV viral load” value ([15]; 100 mg) of the same compound?
The value was 3.1 log10.

And the “range of reduction in HCV viral load” value ([15]; 100 mg)?
The value was 2.7–3.4 log10.

And the EC50 [16]?
Its EC50 is 0.009 to 0.146 nM.

What about the “Headache (most frequent adverse event), subjects reporting” value (HCV-infected subjects) of the same compound?
Its value is “four”.

And the Safety and tolerability (HCV-infected subjects, single oral doses up to 100 mg)?
Its Safety and tolerability is “safe and well tolerated”.

And the half-life (both, human, plasma, po)?
The half-life was 10 to 14 h.

For `O=C1N[C@H]2[C@H](CS[C@H]2CCCCC(=O)N2CCC[C@H]2C(=O)Nc2ccc(/C=C/c3ccc(NC(=O)[C@@H]4CCCN4C(=O)Cc4ccccc4)cc3)cc2)N1` [Compound 1], which EC50 [17] is on record?
Its EC50 is 0.033 µM.

What about the “Binding to HCV NS5A (pull-down)” value [18] of the same compound?
The value was “pulled down efficiently; also recorded: binds”.

What about the NS3 in pull-down [19] of the same compound?
The NS3 in pull-down was “not detected”.

What about the NS5B in pull-down [20] of the same compound?
The NS5B in pull-down was “not detected”.

What about the “Binding to BVDV NS5A (pull-down)” value [21] of the same compound?
The value was “failed to bind”.

And the EC50 [22]?
The EC50 was over 10 µM.

With `O=C1N[C@H]2[C@H](CS[C@H]2CCCCC(=O)N2CCC[C@@H]2C(=O)Nc2ccc(/C=C/c3ccc(NC(=O)[C@H]4CCCN4C(=O)Cc4ccccc4)cc3)cc2)N1` [Compound 2] as the compound, how does the “Binding to HCV NS5A (pull-down)” value [18] read?
The value was “does not”.
